According to patent US10144742B2 (Millennium Pharmaceuticals, Inc., priority 2014, dated 2018):
Read-outs that look alike come from different tables or passages of the source.

Legend:
hNAMPT protein = hNAMPT protein (Homo sapiens (Human), UniProt P43490); test: NAMPT enzyme assay (TR-FRET/HTRF, BodiPY ligand, anti 6His-Tb); format: binding; conditions: for inhibition at 1 µM: read-out: Percent Inhibition; for IC50: read-out: IC50
Outline: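 Compound or DMSO was incubated for 1 h at room temperature, protected from light, with BodiPY ligand and hNAMPT labelled by terbium anti-6His antibody. The 520 nm to 486 nm emission ratio after 320 nm excitation gave inhibition versus vehicle, from which concentration-response curves yielded IC50.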

PC3 cells = test: PC3 growth inhibition (Cell-titer glo, 72 hours); format: cell-based; conditions: Homo sapiens, PC-3, PC3 cells, 72 hours, Cell-titer glo, read-out: Percent Inhibition (PC3 growth inhibition); for inhibition at 1.667 µM: compound concentration 1.667 μM; for inhibition at 1 µM: compound concentration 1 μM
Outline: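 Compounds in AIM serum-free medium were applied for 72 h at 37 °C, 5% CO2 to PC3 cells plated overnight from RPMI1640 culture. Luminescence after 10 min CellTiter-Glo, normalised to DMSO, gave % viability at 1 μM or 1.667 μM, or GI50/LD50.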

[1] = NAMPT inhibition at compound concentration 1 μM
[2] = NAMPT inhibition, IC50 range class

Chain of hNAMPT protein (P43490 whole entry): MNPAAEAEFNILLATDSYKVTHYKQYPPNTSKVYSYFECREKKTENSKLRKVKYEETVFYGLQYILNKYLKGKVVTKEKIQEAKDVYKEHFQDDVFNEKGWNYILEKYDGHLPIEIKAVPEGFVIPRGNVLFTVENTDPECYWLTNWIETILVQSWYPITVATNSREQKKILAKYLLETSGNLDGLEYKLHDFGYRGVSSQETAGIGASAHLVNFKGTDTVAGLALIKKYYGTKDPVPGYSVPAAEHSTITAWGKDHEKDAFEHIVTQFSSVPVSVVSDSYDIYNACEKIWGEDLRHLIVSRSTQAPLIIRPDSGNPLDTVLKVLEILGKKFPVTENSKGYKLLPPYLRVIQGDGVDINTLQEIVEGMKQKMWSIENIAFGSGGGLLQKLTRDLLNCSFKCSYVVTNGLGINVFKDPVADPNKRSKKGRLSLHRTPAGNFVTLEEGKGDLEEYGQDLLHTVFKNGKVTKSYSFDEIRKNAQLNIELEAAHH

Row | SMILES | inhibition at 1 µM (hNAMPT protein; [1]) | IC50 (hNAMPT protein; [2]) | inhibition at 1.667 µM (PC3 cells) | IC50 (hNAMPT protein; NAMPT IC50 range class) | inhibition at 1 µM (hNAMPT protein; compound concentration 1 μM) | inhibition at 1 µM (PC3 cells) | inhibition at 1 µM (hNAMPT protein)
1 | O=C(NCCCc1ncc[nH]1)c1ccc2nc(-c3ccc(F)cc3)c(-c3cn[nH]c3)nc2c1 [Compound I-429, 2-(4-fluorophenyl)-N-[3-(1H-imidazol-2-yl)propyl]-3-(1H-pyrazol-4-yl)quinoxaline-6-carboxamide] | 90% | 100 to 500 nM | 76% | – | – | – | –
2 | N#Cc1cccc(-c2nc3cc(C(=O)NCCCn4ccnc4)ccc3nc2-c2ccccc2)c1 [Compound I-157, 3-(3-cyanophenyl)-N-[3-(1H-imidazol-1-yl)propyl]-2-phenylquinoxaline-6-carboxamide] | – | – | – | 1000 to 2000 nM | 40% | 2% | –
3 | O=C(NCCCc1ncc[nH]1)c1ccc2nc(N3CCCC3)c(-c3ccc(Cl)cc3)nc2c1 [Compound I-116, 3-(4-chlorophenyl)-N-[3-(1H-imidazol-2-yl)propyl]-2-(pyrrolidin-1-yl)quinoxaline-6-carboxamide] | – | – | 2% | < 100 nM | 98% | – | –
4 | CN(CCc1cccnc1)C(=O)c1ccc2nc(-c3ccc(F)cc3)c(-c3ccc(F)cc3)nc2c1 [Compound I-84, 2,3-bis(4-fluorophenyl)-N-methyl-N-[2-(pyridin-3-yl)ethyl]quinoxaline-6-carboxamide] | – | – | – | 2000 to 10000 nM | 17% | 85% | –
5 | CC(C)Oc1nc2ccc(C(=O)NCCCc3c[nH]cn3)cc2nc1-c1ccc(F)cc1 [Compound I-482, 3-(4-Fluorophenyl)-N-[3-(1H-imidazol-4-yl)propyl]-2-isopropoxyquinoxaline-6-carboxamide] | 72% | 100 to 500 nM | 2% | – | – | – | –
6 | O=C(NCCCc1ccccn1)c1ccc2nc(-c3ccc(F)cc3)c(-c3ccc(F)cc3)nc2c1 [Compound I-180, 2,3-Bis(4-fluorophenyl)-N-[3-(pyridin-2-yl)propyl]quinoxaline-6-carboxamide] | – | – | – | 2000 to 10000 nM | – | 102% | 27%
7 | O=C(NCCn1cncn1)c1ccc2nc(-c3ccc(F)cc3)c(-c3ccc(F)cc3)nc2c1 [Compound I-237, 2,3-bis(4-fluorophenyl)-N-[2-(1H-1,2,4-triazol-1-yl)ethyl]quinoxaline-6-carboxamide] | – | – | – | 2000 to 10000 nM | 21% | 96% | –
8 | O=C(NCCCc1ncc[nH]1)c1ccc2nc(-c3ccc(F)cc3)c(-c3cc(Cl)ccc3F)nc2c1 [Compound I-480, 3-(5-Chloro-2-fluoro-phenyl)-2-(4-fluorophenyl)-N-[3-(1H-imidazol-2-yl)propyl]quinoxaline-6-carboxamide] | 100% | < 100 nM | 1% | – | – | – | –
9 | CC(=O)N1CCN(c2nc3ccc(C(=O)NCCCn4ccnc4)cc3nc2-c2ccccc2)CC1 [Compound I-51, 2-(4-acetylpiperazin-1-yl)-N-[3-(1H-imidazol-1-yl)propyl]-3-phenylquinoxaline-6-carboxamide] | – | – | – | 100 to 500 nM | 81% | -7% | –
10 | O=C(NCCCc1ncc[nH]1)c1ccc2nc(-n3cnc4ccccc43)c(-c3ccc(F)cc3)nc2c1 [Compound I-453, 2-(1H-benzimidazol-1-yl)-3-(4-fluorophenyl)-N-[3-(1H-imidazol-2-yl)propyl]quinoxaline-6-carboxamide] | 88% | 100 to 500 nM | 3% | – | – | – | –
11 | COc1ccc(-c2nc3cc(C(=O)NCCCc4ncc[nH]4)ccc3nc2-c2ccc(F)cc2)cc1 [Compound I-448, 2-(4-fluorophenyl)-N-[3-(1H-imidazol-2-yl)propyl]-3-(4-methoxyphenyl)quinoxaline-6-carboxamide] | 67% | 100 to 500 nM | 2% | – | – | – | –
12 | O=C(NCCCn1ccnc1)c1ccc2nc(-c3ccc(Cl)cc3)c(-c3ccccc3)nc2c1 [Compound I-45, 2-(4-chlorophenyl)-N-[3-(1H-imidazol-1-yl)propyl]-3-phenylquinoxaline-6-carboxamide] | – | – | – | 100 to 500 nM | 50% | -6% | –
13 | O=C(NCCCc1ncc[nH]1)c1ccc2nc(Cc3ccc(Cl)cc3)c(-c3ccc(F)cc3)nc2c1 [Compound I-476] | 88% | 100 to 500 nM | 3% | – | – | – | –
14 | CC(C)Oc1nc2ccc(C(=O)NCCCc3ncc[nH]3)cc2nc1-c1ccc(Cl)s1 [Compound I-334, 3-(5-chloro-2-thienyl)-N-[3-(1H-imidazol-2-yl)propyl]-2-isopropoxyquinoxaline-6-carboxamide] | – | – | 1% | < 100 nM | > 99% | – | –
15 | O=C(NCCCc1c[nH]cn1)c1ccc2nc(N3CCCCC3)c(-c3ccc(F)cc3)nc2c1 [Compound I-301, 3-(4-Fluorophenyl)-N-[3-(1H-imidazol-4-yl)propyl]-2-(piperidin-1-yl)quinoxaline-6-carboxamide] | – | – | 2% | < 100 nM | 99% | – | –
16 | O=C(NCCn1ccnc1)c1ccc2nc(-c3ccc(F)cc3)c(-c3ccc(F)cc3)nc2c1 [Compound I-270, 2,3-bis(4-fluorophenyl)-N-[2-(1H-imidazol-1-yl)ethyl]quinoxaline-6-carboxamide] | – | – | – | 1000 to 2000 nM | 47% | 111% | –
17 | O=C(NCCn1ccnc1)c1ccc2nc(N3CCC(C4CCNCC4)CC3)c(-c3ccccc3)nc2c1 [Compound I-173, 2-(4,4′-bipiperidin-1-yl)-N-[2-(1H-imidazol-1-yl)ethyl]-3-phenylquinoxaline-6-carboxamide] | – | – | – | 100 to 500 nM | 83% | -1% | –
18 | O=C(NCCCc1ncc[nH]1)c1ccc2nc(-c3ccc(F)cc3)c(-c3sccc3Cl)nc2c1 [Compound I-504, 3-(3-chloro-2-thienyl)-2-(4-fluorophenyl)-N-[3-(1H-imidazol-2-yl)propyl]quinoxaline-6-carboxamide] | 93% | < 100 nM | 3% | – | – | – | –
19 | O=C(NCCCn1ccnc1)c1ccc2nc(-c3ccccc3Cl)c(-c3ccccc3)nc2c1 [Compound I-257, 2-(2-chlorophenyl)-N-[3-(1H-imidazol-1-yl)propyl]-3-phenylquinoxaline-6-carboxamide] | – | – | – | 100 to 500 nM | 77% | -8% | –
20 | COc1cccc(-c2nc3cc(C(=O)NCCCc4ncc[nH]4)ccc3nc2-c2ccc(F)cc2)c1F [Compound I-398, 3-(2-fluoro-3-methoxyphenyl)-2-(4-fluorophenyl)-N-[3-(1H-imidazol-2-yl)propyl]quinoxaline-6-carboxamide] | 93% | < 100 nM | 2% | – | – | – | –
21 | CC(C)Oc1nc2ccc(C(=O)NCc3cn4cccnc4n3)cc2nc1-c1ccc(F)cc1 [Compound I-506, 3-(4-Fluorophenyl)-N-(imidazo[1,2-a]pyrimidin-2-ylmethyl)-2-isopropoxyquinoxaline-6-carboxamide] | 78% | 100 to 500 nM | > 99% | – | – | – | –
22 | CC1(C)CN(c2nc3cc(C(=O)NCCCn4ccnc4)ccc3nc2-c2ccccc2)CCO1 [Compound I-113, 3-(2,2-dimethylmorpholin-4-yl)-N-[3-(1H-imidazol-1-yl)propyl]-2-phenylquinoxaline-6-carboxamide] | – | – | – | 500 to 1000 nM | 64% | -8% | –
23 | O=C(NCCCc1cccnc1)c1ccc2nc(-c3ccc(F)cc3)c(-c3ccc(F)cc3)nc2c1 [Compound I-32, 2,3-bis(4-fluorophenyl)-N-[3-(pyridin-3-yl)propyl]quinoxaline-6-carboxamide] | – | – | – | 100 to 500 nM | 78% | -5% | –
24 | NC(=O)c1cccc(-c2nc3cc(C(=O)NCCCn4ccnc4)ccc3nc2-c2ccccc2)c1 [Compound I-263, 3-(3-carbamoylphenyl)-N-[3-(1H-imidazol-1-yl)propyl]-2-phenylquinoxaline-6-carboxamide] | – | – | – | 100 to 500 nM | 81% | 1% | –
25 | O=C(NCCCn1ccnc1)c1ccc2nc(N3CCC(N4CCCC4=O)CC3)c(-c3ccccc3)nc2c1 [Compound I-136, N-[3-(1H-imidazol-1-yl)propyl]-2-[4-(2-oxopyrrolidin-1-yl)piperidin-1-yl]-3-phenylquinoxaline-6-carboxamide] | – | – | – | 100 to 500 nM | 83% | -7% | –
26 | NS(=O)(=O)c1cccc(-c2nc3cc(C(=O)NCCCc4ncc[nH]4)ccc3nc2-c2ccc(F)cc2)c1 [Compound I-308, 2-(4-fluorophenyl)-N-[3-(1H-imidazol-2-yl)propyl]-3-(3-sulfamoylphenyl)quinoxaline-6-carboxamide] | – | – | 4% | 100 to 500 nM | 89% | – | –
27 | CN1CCCC(Oc2nc3ccc(C(=O)NCCCc4ncc[nH]4)cc3nc2-c2ccc(F)cc2)C1 (stereo not drawn) [Compound I-423, 3-(4-fluorophenyl)-N-[3-(1H-imidazol-2-yl)propyl]-2-[(1-methylpiperidin-3-yl)oxy]quinoxaline-6-carboxamide] | 88% | 100 to 500 nM | 2% | – | – | – | –
28 | COc1cc(-c2nc3cc(C(=O)NCCCc4ncc[nH]4)ccc3nc2-c2ccc(F)cc2)c(F)cn1 [Compound I-466, 3-(5-fluoro-2-methoxy-4-pyridyl)-2-(4-fluorophenyl)-N-[3-(1H-imidazol-2-yl)propyl]quinoxaline-6-carboxamide] | 95% | < 100 nM | 2% | – | – | – | –
